Measurements: patent US4331803A, “Novel erythromycin compounds” (Taisho Pharmaceutical Co., Ltd., priority 1980, dated 1982)
Values after ≈ are worked out from the molar mass of the structure shown. Where two headings read alike, the source gives them in different places.

Assays:
[1] = Acid stability (pH 2), remaining antibacterial activity by disc method; assay type: physicochemical, Staphylococcus aureus FDA 209P
Experimental: (§1) The compound of the formula(I) was treated in the Clark-Lubs's buffer solution at pH 2 for the prescribed period of time.
(§2) Thereafter, the remaining antibacterial activity was determined by a disc method, using Staphylococcus aureus FDA 209P. Erthromycin A was also tested for the control.

[2] = system: Staphylococcus aureus FDA 209P; assay: as above; assay type: physicochemical; conditions: pH 2, Clark-Lubs's buffer, 0 min
Experimental: as §1, §2

[3] = system: Staphylococcus aureus TPR-5; assay: Antibacterial activity, agar plate dilution method (MIC); assay type: cell-based
Experimental: (§3) The compound of the formula(I) was tested for the antibacterial activity by the agar plate dilution method, using erythromycin A for the control.
*Strain resistant to sulfonamides and penicillins

[4] = system: Staphylococcus aureus TPR-7; assay: as above; assay type: cell-based
Experimental: as §3
**Strain resistant to sulfonamides and tetracyclines

[5] = system: Staphylococcus epidermidis TPR-14; assay: as above; assay type: cell-based
Experimental: as §3
***Strain resistant to sulfonamides, penicillins and chloramphenicol

[6] = system: Bacillus cereus ATCC 9634; assay: as above; assay type: cell-based
Experimental: as §3

[7] = system: Bacillus subtilis ATCC 6633; assay: as above; assay type: cell-based
Experimental: as §3

[8] = system: Micrococcus luteus ATCC 9341; assay: as above; assay type: cell-based
Experimental: as §3

[9] = system: Staphylococcus aureus FDA 209P; assay: as above; assay type: cell-based; conditions: FDA209P, read-out: MIC value
Experimental: as §3

[10] = system: Staphylococcus aureus Smith; assay: as above; assay type: cell-based; conditions: read-out: MIC value
Experimental: as §3

[11] = system: Staphylococcus aureus Terashima; assay: as above; assay type: cell-based; conditions: read-out: MIC value
Experimental: as §3

[12] = system: Staphylococcus epidermidis IID866; assay: as above; assay type: cell-based
Experimental: as §3

[13] = system: Streptococcus faecalis ATCC 8043; assay: as above; assay type: cell-based; conditions: Enterococcus faecalis
Experimental: as §3

[14] = system: Staphylococcus aureus Smith No. 4; assay: In vivo activity, survival of infected mice after oral administration; design: species or system male ddY mice; conditions: 1 h after inoculation, 14 mice per group, 7 days
Experimental: Male ddY mice (body weight, 18-22 g; 14 mice per group) were inoculated with Staphylococcus aureus Smith No. 4. The compound of the formula(I) was administered orally one hour after the inoculation, and the number of mice surviving for seven days after the administration was noted.

[15] = cited from earlier work
[16] = TPR5, Staphylococcus aureus TPR-5, resistant to sulfonamides and penicillins, read-out: MIC value
[17] = TPR7, Staphylococcus aureus TPR-7, resistant to sulfonamides and tetracyclines, read-out: MIC value
[18] = TPR14, Staphylococcus epidermidis TPR-14, resistant to sulfonamides, penicillins and chloramphenicol, read-out: MIC value
[19] = ATCC9634, Bacillus cereus ATCC 9634, read-out: MIC value
[20] = ATCC6633, Bacillus subtilis ATCC 6633, read-out: MIC value
[21] = ATCC9341, Micrococcus luteus ATCC 9341, read-out: MIC value
[22] = Staphylococcus aureus Terashima
[23] = Staphylococcus epidermidis IID866, read-out: MIC value
[24] = ATCC8043, Streptococcus faecalis ATCC 8043, read-out: MIC value

Compound | Remaining activity [2] | The number of surviving mice ([14]; 0.40 mg/kg oral) | The number of surviving mice ([14]; 1.56 mg/kg oral) | The number of surviving mice ([14]; 6.25 mg/kg oral) | The number of surviving mice ([14]; 25 mg/kg oral) | The number of surviving mice ([14]; 100 mg/kg oral) | The number of surviving mice ([14]; 400 mg/kg oral) | remaining at 0.25 h ([1]; clark-lubs buffer, pH 2) | remaining at 0.5 h ([1]; clark-lubs buffer, pH 2) | remaining at 1 h ([1]; clark-lubs buffer, pH 2) | remaining at 2 h ([1]; clark-lubs buffer, pH 2) | MIC [3, 16] | MIC [4, 17] | MIC [5, 18] | MIC [6, 19] | MIC [7, 20] | MIC [8, 21] | MIC ([9]; Staphylococcus aureus FDA 209P) | MIC ([10]; Staphylococcus aureus Smith) | MIC [11, 22] | other results
CC[C@H]1OC(=O)[C@H](C)[C@@H](O[C@H]2C[C@@](C)(OC)[C@@H](O)[C@H](C)O2)[C@H](C)[C@@H](O[C@@H]2O[C@H](C)C[C@H](N(C)C)[C@H]2O)[C@](C)(O)C[C@@H](C)C(=O)[C@H](C)[C@@H](O)[C@]1(C)O [Erythromycin A, erythromycin A, reference compound] | 100% | 0 mice | 0 mice | 0 mice | 1 mice | 11 mice | 14 mice |  |  |  |  |  |  |  |  |  |  |  |  |  | remaining at 0.25 h ([1]; pH 2, Clark-Lubs's buffer, 15 min, read-out: Remaining activity): 1.5%; remaining at 0.5 h ([1]; pH 2, Clark-Lubs's buffer, 30 min, read-out: Remaining activity): 0.5%; remaining at 1 h ([1]; pH 2, Clark-Lubs's buffer, 60 min, read-out: Remaining activity): 0%; remaining at 2 h ([1]; pH 2, Clark-Lubs's buffer, 120 min, read-out: Remaining activity): 0%; MIC ([3]; Staphylococcus aureus, TPR5, read-out: MIC value): 0.4 µg/mL (≈ 0.545 µM); MIC ([4]; Staphylococcus aureus, TPR7, read-out: MIC value): 0.4 µg/mL (≈ 0.545 µM); MIC ([5]; Staphylococcus epidermidis, TPR14, read-out: MIC value): 0.4 µg/mL (≈ 0.545 µM); MIC ([6]; Bacillus cereus, ATCC9634, read-out: MIC value): 0.4 µg/mL (≈ 0.545 µM); MIC ([7]; Bacillus subtilis, ATCC6633, read-out: MIC value): 0.1 µg/mL (≈ 0.136 µM); MIC ([8]; Micrococcus luteus, ATCC9341, read-out: MIC value): ≤ 0.05 µg/mL; MIC ([9]; Staphylococcus aureus): 0.2 µg/mL (≈ 0.273 µM); MIC ([10]; Staphylococcus aureus): 0.4 µg/mL (≈ 0.545 µM); MIC ([11]; Staphylococcus aureus): 0.4 µg/mL (≈ 0.545 µM); MIC ([12]; Staphylococcus epidermidis, IID866, read-out: MIC value): 0.4 µg/mL (≈ 0.545 µM); MIC ([13]; ATCC8043, read-out: MIC value): 0.05 µg/mL (≈ 0.0681 µM); antibacterial activity after oral administration (acid in stomach) [15]: loses rapidly the antibacterial activity; blood concentration ([15]; oral): remains at a low level
CC[C@H]1OC(=O)[C@H](C)[C@@H](O[C@H]2C[C@@](C)(OC)[C@@H](O)[C@H](C)O2)[C@H](C)[C@@H](O[C@@H]2O[C@H](C)C[C@H](N(C)C)[C@H]2O)[C@](C)(OC)C[C@@H](C)C(=O)[C@H](C)[C@@H](OC)[C@]1(C)O [TE-032, 6,11-di-O-methylerythromycin A] | 100% | 0 mice | 0 mice | 4 mice | 7 mice | 14 mice | 14 mice | 100% | 95% | 85% | 65% | 0.4 µg/mL (≈ 0.525 µM) | 0.4 µg/mL (≈ 0.525 µM) | 0.4 µg/mL (≈ 0.525 µM) | 0.4 µg/mL (≈ 0.525 µM) | 0.05 µg/mL (≈ 0.0656 µM) | ≤ 0.05 µg/mL | 0.1 µg/mL (≈ 0.131 µM) | 0.1 µg/mL (≈ 0.131 µM) | 0.4 µg/mL (≈ 0.525 µM) | MIC [12, 23]: 0.4 µg/mL (≈ 0.525 µM); MIC [13, 24]: 0.05 µg/mL (≈ 0.0656 µM)
CC[C@H]1OC(=O)[C@H](C)[C@@H](O[C@H]2C[C@@](C)(OC)[C@@H](O)[C@H](C)O2)[C@H](C)[C@@H](O[C@@H]2O[C@H](C)C[C@H](N(C)C)[C@H]2O)[C@](C)(OC)C[C@@H](C)C(=O)[C@H](C)[C@@H](O)[C@]1(C)O [TE-031, 6-O-methylerythromycin A] | 100% | 0 mice | 1 mice | 3 mice | 13 mice | 14 mice | 14 mice | 100% | 95% | 80% | 65% | 0.2 µg/mL (≈ 0.267 µM) | 0.2 µg/mL (≈ 0.267 µM) | 0.2 µg/mL (≈ 0.267 µM) | 0.2 µg/mL (≈ 0.267 µM) | 0.05 µg/mL (≈ 0.0668 µM) | ≤ 0.05 µg/mL | 0.05 µg/mL (≈ 0.0668 µM) | 0.2 µg/mL (≈ 0.267 µM) | 0.2 µg/mL (≈ 0.267 µM) | MIC [12, 23]: 0.2 µg/mL (≈ 0.267 µM); MIC [13, 24]: 0.05 µg/mL (≈ 0.0668 µM)
